Results reported in ChEMBL document CHEMBL4354805, “Discovery of MK-8719, a Potent O-GlcNAcase Inhibitor as a Potential Treatment for Tauopathies” (J Med Chem, 2019).

Legend:
MDR1 = assay: Apparent permeability in pig LLC-PK1 cells transfected with MDR1; type: ADME, cell-based, Sus scrofa
[1] = molecular target: T1, Beta-hexosaminidase subunit beta (Homo sapiens, UniProt P07686); assay: Inhibition of human beta hexosaminidase assessed as inhibitory constant using 4-methylumbelliferyl N-acetyl-beta-D-glucosaminide dihydrate as substrate measured every 60 sec for 45 mins by fluorescence spectrophotometry
T1 sequence (P07686 whole entry): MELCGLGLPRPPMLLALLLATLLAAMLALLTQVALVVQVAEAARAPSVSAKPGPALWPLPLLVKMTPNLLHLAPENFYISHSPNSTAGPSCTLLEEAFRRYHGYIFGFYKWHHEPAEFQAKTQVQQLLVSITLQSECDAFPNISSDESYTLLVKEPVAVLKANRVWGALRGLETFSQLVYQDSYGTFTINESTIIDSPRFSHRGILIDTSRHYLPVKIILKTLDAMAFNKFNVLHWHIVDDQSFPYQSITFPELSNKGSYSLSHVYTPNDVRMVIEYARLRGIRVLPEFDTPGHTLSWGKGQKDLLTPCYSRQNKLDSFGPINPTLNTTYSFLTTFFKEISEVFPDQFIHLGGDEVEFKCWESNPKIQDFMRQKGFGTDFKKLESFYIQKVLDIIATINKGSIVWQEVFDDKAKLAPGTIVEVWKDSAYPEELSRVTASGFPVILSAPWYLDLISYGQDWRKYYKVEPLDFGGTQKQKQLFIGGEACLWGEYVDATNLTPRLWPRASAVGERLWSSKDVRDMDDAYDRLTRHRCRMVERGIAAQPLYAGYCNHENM

[2] = AUCN in Wistar Han rat at 3 mg/kg, po; type: ADME, organism-based; conditions: in vivo
[3] = Clearance in Wistar Han rat at 2 mg/kg, iv; type: ADME, organism-based; conditions: in vivo
[4] = Half life in Wistar Han rat at 2 mg/kg, iv; type: ADME, organism-based; conditions: in vivo
[5] = Volume of distribution at steady state in Wistar Han rat at 2 mg/kg, iv or 3 mg/kg, po; type: ADME, organism-based; conditions: in vivo, read-out: Vdss
[6] = Oral bioavailability in Wistar Han rat at 3 mg/kg; type: ADME, organism-based; conditions: in vivo
Protein O-GlcNAcase [7] = molecular target: T2, Protein O-GlcNAcase (Homo sapiens, UniProt O60502); assay: Inhibition of recombinant human OGA
T2 sequence (O60502 whole entry): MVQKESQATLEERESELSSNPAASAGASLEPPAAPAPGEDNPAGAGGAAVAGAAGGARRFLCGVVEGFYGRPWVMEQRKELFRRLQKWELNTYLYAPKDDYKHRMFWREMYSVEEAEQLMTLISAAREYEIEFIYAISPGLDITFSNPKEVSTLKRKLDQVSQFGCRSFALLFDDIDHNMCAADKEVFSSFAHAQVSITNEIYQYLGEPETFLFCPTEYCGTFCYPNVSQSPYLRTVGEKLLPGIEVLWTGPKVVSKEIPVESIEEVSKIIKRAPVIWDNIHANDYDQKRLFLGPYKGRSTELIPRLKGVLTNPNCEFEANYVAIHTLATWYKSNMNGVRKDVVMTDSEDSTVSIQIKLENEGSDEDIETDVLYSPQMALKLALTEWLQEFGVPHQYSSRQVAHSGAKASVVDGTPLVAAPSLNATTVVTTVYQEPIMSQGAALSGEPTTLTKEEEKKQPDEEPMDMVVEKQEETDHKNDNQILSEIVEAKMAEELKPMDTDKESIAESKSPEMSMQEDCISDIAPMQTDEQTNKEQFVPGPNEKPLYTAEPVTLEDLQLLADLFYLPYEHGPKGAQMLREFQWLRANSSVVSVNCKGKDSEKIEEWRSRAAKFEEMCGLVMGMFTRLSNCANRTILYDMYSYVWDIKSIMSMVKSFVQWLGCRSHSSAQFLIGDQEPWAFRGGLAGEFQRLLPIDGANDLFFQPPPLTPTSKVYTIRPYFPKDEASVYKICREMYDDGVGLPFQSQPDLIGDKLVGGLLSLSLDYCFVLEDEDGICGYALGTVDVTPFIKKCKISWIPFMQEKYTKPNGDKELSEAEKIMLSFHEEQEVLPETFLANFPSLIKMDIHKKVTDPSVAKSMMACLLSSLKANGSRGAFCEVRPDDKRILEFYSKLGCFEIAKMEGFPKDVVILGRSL

[8] = molecular target: Voltage-gated inwardly rectifying potassium channel KCNH2 (Homo sapiens, UniProt Q12809); assay: Displacement of MK-0499 from human ERG
[9] = molecular target: Sodium channel protein type 5 subunit alpha (Homo sapiens, UniProt Q14524); assay: Inhibition of Nav1.5 (unknown origin)
[10] = molecular target: Voltage-dependent L-type calcium channel subunit alpha-1C (Homo sapiens, UniProt Q13936); assay: Inhibition of Cav1.2 (unknown origin)
Cytochrome P450 3A4 = Cytochrome P450 3A4 (Homo sapiens, UniProt P08684); assay: Inhibition of CYP3A4 (unknown origin); type: ADME
Cytochrome P450 2D6 = Cytochrome P450 2D6 (Homo sapiens, UniProt P10635); assay: Inhibition of CYP2D6 (unknown origin); type: ADME
Cytochrome P450 2C9 = Cytochrome P450 2C9 (Homo sapiens, UniProt P11712); assay: Inhibition of CYP2C9 (unknown origin); type: ADME
[11] = molecular target: T3, Nuclear receptor subfamily 1 group I member 2 (Homo sapiens, UniProt O75469); assay: Activation of PXR (unknown origin) assessed as CYP3A4 induction
T3 sequence (O75469 whole entry): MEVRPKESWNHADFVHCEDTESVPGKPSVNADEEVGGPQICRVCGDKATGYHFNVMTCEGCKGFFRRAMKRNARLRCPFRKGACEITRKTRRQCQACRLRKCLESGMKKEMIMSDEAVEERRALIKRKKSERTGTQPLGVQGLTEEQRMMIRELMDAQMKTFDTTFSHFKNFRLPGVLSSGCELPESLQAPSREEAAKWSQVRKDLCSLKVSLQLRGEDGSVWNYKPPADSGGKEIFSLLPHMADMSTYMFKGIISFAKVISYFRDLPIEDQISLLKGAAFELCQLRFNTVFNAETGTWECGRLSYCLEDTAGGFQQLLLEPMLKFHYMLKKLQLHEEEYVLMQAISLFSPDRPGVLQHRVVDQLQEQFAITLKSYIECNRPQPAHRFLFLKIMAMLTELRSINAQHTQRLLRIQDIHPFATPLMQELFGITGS

Protein O-GlcNAcase [12] = molecular target: T4, Protein O-GlcNAcase (Rattus norvegicus, UniProt Q8VIJ5); assay: Inhibition of OGA in rat PC12 cells assessed as OGlcNAcylated protein level incubated for 24 hrs by ELISA; type: cell-based
T4 sequence (Q8VIJ5 whole entry): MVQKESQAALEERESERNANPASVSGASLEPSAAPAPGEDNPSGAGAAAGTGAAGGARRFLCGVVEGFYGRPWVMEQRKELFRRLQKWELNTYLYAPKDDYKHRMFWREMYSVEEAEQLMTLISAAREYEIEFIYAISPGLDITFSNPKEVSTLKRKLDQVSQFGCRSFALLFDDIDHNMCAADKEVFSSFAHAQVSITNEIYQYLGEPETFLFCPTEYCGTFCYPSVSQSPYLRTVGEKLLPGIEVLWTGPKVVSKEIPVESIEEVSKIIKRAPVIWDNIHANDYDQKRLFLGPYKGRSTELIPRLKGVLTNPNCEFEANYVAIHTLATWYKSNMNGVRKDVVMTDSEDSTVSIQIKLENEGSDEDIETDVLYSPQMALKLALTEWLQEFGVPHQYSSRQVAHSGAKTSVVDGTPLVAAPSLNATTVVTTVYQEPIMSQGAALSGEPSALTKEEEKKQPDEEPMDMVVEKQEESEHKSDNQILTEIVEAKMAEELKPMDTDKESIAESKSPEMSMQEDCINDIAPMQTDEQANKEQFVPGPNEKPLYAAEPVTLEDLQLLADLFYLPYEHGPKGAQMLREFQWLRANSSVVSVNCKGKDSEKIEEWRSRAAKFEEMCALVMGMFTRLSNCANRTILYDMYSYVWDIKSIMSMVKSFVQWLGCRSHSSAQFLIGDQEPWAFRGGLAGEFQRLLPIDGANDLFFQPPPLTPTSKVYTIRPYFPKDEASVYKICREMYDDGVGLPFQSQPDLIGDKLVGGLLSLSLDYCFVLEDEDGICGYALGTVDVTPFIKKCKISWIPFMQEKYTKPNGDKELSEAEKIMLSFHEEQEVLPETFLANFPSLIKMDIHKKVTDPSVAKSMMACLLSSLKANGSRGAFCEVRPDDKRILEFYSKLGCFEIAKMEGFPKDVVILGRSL

Chain of Voltage-dependent L-type calcium channel subunit alpha-1C (Q13936 whole entry): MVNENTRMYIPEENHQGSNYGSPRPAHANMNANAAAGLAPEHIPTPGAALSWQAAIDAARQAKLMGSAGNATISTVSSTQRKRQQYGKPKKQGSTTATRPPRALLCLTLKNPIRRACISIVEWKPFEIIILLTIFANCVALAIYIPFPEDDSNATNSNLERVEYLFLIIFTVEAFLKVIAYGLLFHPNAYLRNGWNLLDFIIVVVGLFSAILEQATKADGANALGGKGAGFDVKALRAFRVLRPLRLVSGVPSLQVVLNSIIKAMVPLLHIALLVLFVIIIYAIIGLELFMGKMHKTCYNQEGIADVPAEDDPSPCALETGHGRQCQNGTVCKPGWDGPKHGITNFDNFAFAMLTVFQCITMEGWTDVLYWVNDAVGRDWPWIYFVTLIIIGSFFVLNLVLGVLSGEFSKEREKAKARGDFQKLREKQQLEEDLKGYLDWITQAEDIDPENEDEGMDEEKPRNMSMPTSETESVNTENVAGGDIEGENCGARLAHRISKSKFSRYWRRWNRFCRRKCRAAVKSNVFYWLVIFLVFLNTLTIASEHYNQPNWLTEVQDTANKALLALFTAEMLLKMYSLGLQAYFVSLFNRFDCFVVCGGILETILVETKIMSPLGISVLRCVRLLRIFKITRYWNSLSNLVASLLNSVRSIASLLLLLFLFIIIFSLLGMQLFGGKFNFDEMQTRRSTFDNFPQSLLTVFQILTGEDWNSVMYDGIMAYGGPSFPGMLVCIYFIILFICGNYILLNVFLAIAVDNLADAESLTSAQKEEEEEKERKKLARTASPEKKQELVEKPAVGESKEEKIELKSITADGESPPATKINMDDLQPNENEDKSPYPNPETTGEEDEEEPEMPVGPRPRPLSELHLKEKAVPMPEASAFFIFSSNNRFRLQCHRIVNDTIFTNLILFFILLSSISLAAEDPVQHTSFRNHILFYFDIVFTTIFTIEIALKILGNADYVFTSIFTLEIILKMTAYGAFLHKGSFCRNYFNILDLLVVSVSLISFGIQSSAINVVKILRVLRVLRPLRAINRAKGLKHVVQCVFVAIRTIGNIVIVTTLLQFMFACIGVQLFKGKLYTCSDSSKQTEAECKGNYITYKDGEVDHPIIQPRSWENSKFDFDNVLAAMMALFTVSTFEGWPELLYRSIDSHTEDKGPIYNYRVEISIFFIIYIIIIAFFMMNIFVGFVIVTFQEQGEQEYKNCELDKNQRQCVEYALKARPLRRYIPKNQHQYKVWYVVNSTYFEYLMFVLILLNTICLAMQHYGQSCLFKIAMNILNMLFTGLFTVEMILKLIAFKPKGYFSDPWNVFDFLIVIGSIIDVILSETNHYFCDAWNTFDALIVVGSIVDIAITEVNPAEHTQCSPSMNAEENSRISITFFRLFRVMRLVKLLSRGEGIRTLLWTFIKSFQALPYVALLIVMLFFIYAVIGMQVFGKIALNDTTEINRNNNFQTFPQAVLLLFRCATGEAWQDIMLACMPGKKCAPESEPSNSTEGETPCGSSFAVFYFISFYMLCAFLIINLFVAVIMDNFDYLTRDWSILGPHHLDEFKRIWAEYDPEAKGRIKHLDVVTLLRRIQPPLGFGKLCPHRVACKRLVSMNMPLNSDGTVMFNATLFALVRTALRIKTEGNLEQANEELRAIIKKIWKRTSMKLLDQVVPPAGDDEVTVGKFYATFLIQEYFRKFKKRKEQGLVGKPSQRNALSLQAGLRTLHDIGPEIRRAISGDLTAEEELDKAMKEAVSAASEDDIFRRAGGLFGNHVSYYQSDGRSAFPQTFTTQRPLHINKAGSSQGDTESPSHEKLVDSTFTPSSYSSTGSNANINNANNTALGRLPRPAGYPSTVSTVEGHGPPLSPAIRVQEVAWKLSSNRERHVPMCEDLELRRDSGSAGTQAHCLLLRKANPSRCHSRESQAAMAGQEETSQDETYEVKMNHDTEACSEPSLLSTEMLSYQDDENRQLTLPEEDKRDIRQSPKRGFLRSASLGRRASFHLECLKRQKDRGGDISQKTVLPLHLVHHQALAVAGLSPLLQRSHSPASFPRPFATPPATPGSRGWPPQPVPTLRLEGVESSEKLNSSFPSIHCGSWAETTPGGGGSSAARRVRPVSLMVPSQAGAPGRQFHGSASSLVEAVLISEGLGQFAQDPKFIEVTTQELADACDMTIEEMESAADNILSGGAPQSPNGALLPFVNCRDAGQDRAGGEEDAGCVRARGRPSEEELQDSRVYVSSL
Chain of Cytochrome P450 2D6 (P10635 whole entry): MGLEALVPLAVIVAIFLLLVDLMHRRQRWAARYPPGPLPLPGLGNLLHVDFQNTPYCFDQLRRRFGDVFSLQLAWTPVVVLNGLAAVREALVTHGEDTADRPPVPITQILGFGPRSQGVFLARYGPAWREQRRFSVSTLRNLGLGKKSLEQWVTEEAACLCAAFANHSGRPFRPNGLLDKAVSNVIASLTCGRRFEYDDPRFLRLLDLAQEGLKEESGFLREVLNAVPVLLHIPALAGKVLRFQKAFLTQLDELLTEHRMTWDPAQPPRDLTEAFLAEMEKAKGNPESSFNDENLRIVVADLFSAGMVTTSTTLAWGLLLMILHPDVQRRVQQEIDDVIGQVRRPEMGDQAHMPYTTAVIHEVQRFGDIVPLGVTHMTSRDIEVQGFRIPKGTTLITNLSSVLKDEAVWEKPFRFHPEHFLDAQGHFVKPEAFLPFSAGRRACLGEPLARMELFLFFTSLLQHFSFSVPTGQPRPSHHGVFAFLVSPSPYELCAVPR
Chain of Sodium channel protein type 5 subunit alpha (Q14524 whole entry): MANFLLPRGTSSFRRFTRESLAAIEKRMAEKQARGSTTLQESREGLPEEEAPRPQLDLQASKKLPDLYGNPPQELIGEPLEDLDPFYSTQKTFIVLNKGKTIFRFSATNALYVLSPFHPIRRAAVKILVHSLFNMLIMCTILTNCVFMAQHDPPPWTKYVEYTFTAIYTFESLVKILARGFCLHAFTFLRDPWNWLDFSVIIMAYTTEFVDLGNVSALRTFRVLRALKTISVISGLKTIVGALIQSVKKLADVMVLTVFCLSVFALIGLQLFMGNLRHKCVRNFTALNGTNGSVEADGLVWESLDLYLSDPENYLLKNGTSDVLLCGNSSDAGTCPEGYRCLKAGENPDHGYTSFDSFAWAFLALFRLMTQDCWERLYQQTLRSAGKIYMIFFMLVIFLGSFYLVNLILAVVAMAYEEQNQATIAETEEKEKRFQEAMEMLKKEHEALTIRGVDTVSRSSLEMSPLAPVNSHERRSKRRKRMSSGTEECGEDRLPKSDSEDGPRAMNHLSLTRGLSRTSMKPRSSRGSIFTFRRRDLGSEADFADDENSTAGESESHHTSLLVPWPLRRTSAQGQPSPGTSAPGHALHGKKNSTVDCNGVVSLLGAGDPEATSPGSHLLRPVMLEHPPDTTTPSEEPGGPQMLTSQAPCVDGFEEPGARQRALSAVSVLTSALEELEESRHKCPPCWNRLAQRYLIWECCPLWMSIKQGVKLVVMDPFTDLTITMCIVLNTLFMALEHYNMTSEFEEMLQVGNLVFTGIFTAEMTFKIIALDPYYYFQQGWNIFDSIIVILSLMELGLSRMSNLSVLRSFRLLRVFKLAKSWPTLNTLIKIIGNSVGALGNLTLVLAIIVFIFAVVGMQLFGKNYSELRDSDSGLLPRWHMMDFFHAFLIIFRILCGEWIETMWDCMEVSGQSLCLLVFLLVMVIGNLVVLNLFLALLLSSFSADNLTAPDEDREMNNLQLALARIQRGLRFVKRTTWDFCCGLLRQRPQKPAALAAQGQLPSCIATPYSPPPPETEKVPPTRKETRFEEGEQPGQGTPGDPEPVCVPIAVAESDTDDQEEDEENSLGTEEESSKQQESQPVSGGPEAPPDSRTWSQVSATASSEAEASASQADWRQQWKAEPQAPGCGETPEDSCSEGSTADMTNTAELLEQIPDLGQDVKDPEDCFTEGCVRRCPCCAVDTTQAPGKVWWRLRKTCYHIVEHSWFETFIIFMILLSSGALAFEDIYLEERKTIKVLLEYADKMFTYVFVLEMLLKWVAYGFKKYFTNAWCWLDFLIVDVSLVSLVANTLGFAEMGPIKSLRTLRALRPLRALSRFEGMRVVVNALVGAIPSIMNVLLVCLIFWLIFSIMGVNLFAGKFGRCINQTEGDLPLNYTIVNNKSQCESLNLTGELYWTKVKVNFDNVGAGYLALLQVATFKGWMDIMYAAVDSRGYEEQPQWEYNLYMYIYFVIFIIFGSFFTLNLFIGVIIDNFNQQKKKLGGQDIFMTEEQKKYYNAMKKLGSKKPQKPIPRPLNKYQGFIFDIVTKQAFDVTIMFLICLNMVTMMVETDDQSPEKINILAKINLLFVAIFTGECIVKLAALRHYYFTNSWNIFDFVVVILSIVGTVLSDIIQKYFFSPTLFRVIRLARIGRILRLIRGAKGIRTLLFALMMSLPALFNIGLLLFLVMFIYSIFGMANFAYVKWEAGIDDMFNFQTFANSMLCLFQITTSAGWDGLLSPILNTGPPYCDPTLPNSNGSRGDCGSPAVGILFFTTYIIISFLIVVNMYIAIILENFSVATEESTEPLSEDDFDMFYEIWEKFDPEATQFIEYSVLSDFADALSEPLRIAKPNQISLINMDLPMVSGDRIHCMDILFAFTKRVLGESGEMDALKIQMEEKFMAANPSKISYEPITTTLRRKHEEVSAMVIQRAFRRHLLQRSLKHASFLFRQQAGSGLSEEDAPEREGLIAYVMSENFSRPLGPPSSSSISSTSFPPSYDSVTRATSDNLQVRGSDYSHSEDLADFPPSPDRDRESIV

Compound	Papp (MDR1)	Ki [1]	Ki (Protein O-GlcNAcase [7])	also measured
CN(C)C1=N[C@@H]2C[C@H](O)[C@@H](CO)O[C@@H]2S1		> 10000 nM		AUC/dose [2]: 2.26 µM·kg·h/mg; clearance [3]: 25.7 mL/min/kg; half-life [4]: 1.95 h; Vd [5]: 2.49 L/kg; bioavailability [6]: 80.1%
CCNC1=N[C@@H]2[C@@H](O)[C@H](O)[C@@H](C)O[C@@H]2S1			69 nM	IC50 [8]: > 30000 nM; IC50 [9]: > 30000 nM; IC50 [10]: > 30000 nM; IC50 (Cytochrome P450 3A4): > 50000 nM; IC50 (Cytochrome P450 2D6): > 50000 nM; IC50 (Cytochrome P450 2C9): > 50000 nM; EC50 [11]: > 30000 nM
CNC1=N[C@@H]2[C@@H](F)[C@H](O)[C@@H](CO)O[C@@H]2S1		8100 nM	3 nM	EC50 (Protein O-GlcNAcase [12]): 307 nM
CNC1=N[C@@H]2[C@@H](F)[C@H](O)[C@@H](C(F)F)O[C@@H]2S1	22 ×10⁻⁶ cm/s	> 10000 nM	58 nM	
C=CCNC1=N[C@@H]2[C@@H](O)[C@H](O)[C@@H](C(F)F)O[C@@H]2S1	12 ×10⁻⁶ cm/s	> 10000 nM	74 nM	
O[C@H]1[C@H](O)[C@@H](C(F)F)O[C@@H]2SC(N3CCC3)=N[C@H]12	18 ×10⁻⁶ cm/s	> 10000 nM	26 nM	
CCCNC1=N[C@@H]2C[C@H](O)[C@@H](CO)O[C@@H]2S1	2.5 ×10⁻⁶ cm/s	> 10000 nM	50 nM	EC50 (Protein O-GlcNAcase [12]): 224 nM

More lines, main results first:

Papp (MDR1)	Ki [1]	Ki (Protein O-GlcNAcase [7])	Compound	also measured
0.8 ×10⁻⁶ cm/s	4500 nM		C=CCN(C)C1=N[C@@H]2[C@@H](O)[C@H](O)[C@@H](CO)O[C@@H]2S1	AUC/dose [2]: 0.538 µM·kg·h/mg; clearance [3]: 45.8 mL/min/kg; half-life [4]: 4.03 h; Vd [5]: 16.1 L/kg; bioavailability [6]: 108%
		> 3000 nM	OC[C@H]1O[C@@H]2SC(N3CC(F)C3)=N[C@@H]2[C@@H](O)[C@@H]1O	
	> 10000 nM		OC[C@H]1O[C@@H]2SC(N3CCCC3)=N[C@@H]2[C@@H](O)[C@@H]1O	
	> 10000 nM	180 nM	C=CCNC1=N[C@@H]2[C@@H](O)[C@H](O)[C@@H](CF)O[C@@H]2S1	
	> 10000 nM		OC[C@H]1O[C@@H]2SC(N3CC[C@@H](F)C3)=N[C@@H]2[C@@H](O)[C@@H]1O	
2.2 ×10⁻⁶ cm/s	> 10000 nM	5.6 nM	OC[C@H]1O[C@@H]2SC(NCCF)=N[C@@H]2[C@@H](O)[C@@H]1O	EC50 (Protein O-GlcNAcase [12]): 509 nM; AUC/dose [2]: 0.903 µM·kg·h/mg; clearance [3]: 33.6 mL/min/kg; half-life [4]: 1.29 h; Vd [5]: 1.33 L/kg; bioavailability [6]: 48.6%
